Experimental data from US20060058366A1, “Jnk inhibitor” (KYOWA HAKKO KOGYO CO., LTD., priority 2002, published 2006).

These compounds were tested against T1, mouse JNK 3 (Mus musculus, UniProt Q61831) (assay: JNK 3 inhibitory activity (33P incorporation into GST-JSAP1 fused protein)). Details: crude extract of COS-7 cells expressing mouse JNK 3; 3 μmol/L ATP; GST-JSAP1 substrate; 30° C., 15 minutes; read-out: JNK3 Inhibitory Activity (IC50/μM).
T1 construct: made in house; host or cells: COS-7 cells (crude extract)
T1 sequence (Q61831 whole entry, the tested form may be a part): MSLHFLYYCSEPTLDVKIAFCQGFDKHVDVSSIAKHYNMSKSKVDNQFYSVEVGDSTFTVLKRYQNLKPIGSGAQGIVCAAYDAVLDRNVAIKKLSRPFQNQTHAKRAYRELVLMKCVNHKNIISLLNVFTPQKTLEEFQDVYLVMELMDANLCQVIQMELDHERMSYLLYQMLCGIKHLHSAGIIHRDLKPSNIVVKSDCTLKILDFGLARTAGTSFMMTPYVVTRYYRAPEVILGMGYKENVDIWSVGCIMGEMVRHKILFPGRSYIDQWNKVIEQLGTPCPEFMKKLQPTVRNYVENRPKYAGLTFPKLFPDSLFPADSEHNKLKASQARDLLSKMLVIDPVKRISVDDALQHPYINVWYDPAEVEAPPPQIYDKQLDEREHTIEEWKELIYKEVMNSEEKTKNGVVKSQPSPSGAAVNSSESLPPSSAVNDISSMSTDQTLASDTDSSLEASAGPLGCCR
Assay type: biochemical
Protocol: A crude extract of COS-7 cells in which mouse JNK 3 was expressed was used as the transcription enzyme solution. Glutathione-S-transferase (GST)-JSAP 1 (JNK/SAPK associated protein 1) fused protein was expressed in E. coli and its crude extract was subjected to an affinity purification using a column of Glutathione Sepharose 4B. An enzyme solution (3 μL), 50 μL of a reaction solution containing a test compound [in the reaction solution, (physiological saline)/(DMSO solution containing the test compound) (ratio by weight) was adjusted to 99/1], 50 μL of a substrate solution (final concentration: 3 μmol/L ATP), 0.75 μCi/ml[γ-^33P]-ATP and 66 μg/mL (1.5 μmol/L) of GST-JSAP1 fused protein reaction solution were incubated at 30° C. for 15 minutes. The reaction was stopped by addition of ethanol whereupon the GST-JSAP1 fused protein was precipitated. The precipitated protein was filtered using a Filter Mate Harvester (Packard Instruments) and adsorbed to a Unifilter Plate GF/B. Incorporation of radiation activity from [γ-^33P1-ATP to the GST-JSAP1 fused protein was measured using TopCount-HTS (Packard Instruments) to calculate enzyme inhibition activity. The enzyme inhibitory activity was calculated by a Probit (L) method using a statistic analysis software SAS (Release 6.12; SAS Institute, Inc.) as the 50% enzyme activity inhibiting concentration (IC50).

IC50 [µM] | Compound
< 0.5 | CN(C)CCOc1ccc(/C=C/c2n[nH]c3ccccc23)cc1 [Compound 1]
< 0.5 | C(=C\c1n[nH]c2ccccc12)/c1cccnc1 [Compound 2, (E)-3-[2-(3-Pyridyl)vinyl]-1H-indazole]
< 0.5 | O=C(Cc1c[nH]c2ccccc12)Nc1ccc2[nH]nc(/C=C/c3cccnc3)c2c1 [Compound 6, (E)-5-(3-Indolyl)acetamide-3-[2-(3-pyridyl)vinyl]-1H-indazole]
1.2 | O=C(CCS(=O)(=O)c1ccccc1)Nc1ccc2[nH]nc(/C=C/c3cccnc3)c2c1 [Compound 7, (E)-5-[3-(Phenylsulfonyl)propaneamido]-3-[2-(3-pyridyl)vinyl]-1H-indazole]
0.55 | O=C(Nc1ccc2[nH]nc(/C=C/c3cccnc3)c2c1)c1cnccn1 [Compound 9, (E)-5-(Pyrazinecarboxamido)-3-[2-(3-pyridyl)vinyl]-1H-indazole]
< 0.5 | O=C(Nc1ccc2[nH]nc(/C=C/c3cccnc3)c2c1)c1ccncc1 [Compound 11, (E)-5-(4-Pyridinecarboxamido)-3-[2-(3-pyridyl)vinyl]-1H-indazole]
< 0.5 | O=C(O)c1ccc(C(=O)Nc2ccc3[nH]nc(/C=C/c4cccnc4)c3c2)cc1 [Compound 12, (E)-5-(4-Carboxybenzamido)-3-[2-(3-pyridyl)vinyl]-1H-indazole]
< 0.5 | COC(=O)/C=C/c1ccc2[nH]nc(/C=C/c3cccnc3)c2c1 [Compound 14, (E)-5-(2-Methoxycarbonylvinyl)-(E)-3-[2-(3-pyridyl)vinyl]-1H-indazole]
< 0.5 | O=C(O)/C=C/c1ccc2[nH]nc(/C=C/c3cccnc3)c2c1 [Compound 15, (E)-5-(2-Carbonxyvinyl)-(E)-3-[2-(3-pyridyl)vinyl]-1H-indazole]
< 0.5 | O=C(O)c1ccc(/C=C/c2ccc3[nH]nc(/C=C/c4cccnc4)c3c2)cc1 [Compound 17, (E)-5-[2-(4-Carboxyphenyl)vinyl]-(E)-3-[2-(3-pyridyl)vinyl]-1H-indazole]
< 0.5 | OCC#Cc1ccc2[nH]nc(/C=C/c3cccnc3)c2c1 [Compound 18, (E)-5-(3-hydroxy-1-propyn-1-yl)-3-[2-(3-pyridyl)vinyl]-1H-indazole]
< 0.5 | O=C(O)c1ccc2[nH]nc(/C=C/c3cccnc3)c2c1 [Compound 19, (E)-3-[2-(3-Pyridyl)vinyl]-1H-indazole-5-carboxylic acid]
< 0.5 | OCC=Cc1ccc2[nH]nc(/C=C/c3cccnc3)c2c1 [Compound 21, (E)-5-(3-Hydroxy-1-propen-1-yl)-3-[2-(3-pyridyl)vinyl]-1H-indazole]
< 0.5 | O=C(O)c1ccc(C(=O)Nc2ccc3[nH]nc(/C=C/c4cnccc4NC(=O)c4ccccc4)c3c2)cc1 [Compound 24, (E)-3-[2-(4-Benzamidopyridin-3-yl)vinyl]-5-(4-carboxybenzamido)-1H-indazole]
< 0.5 | O=C(Nc1ccccc1/C=C/c1n[nH]c2ccc(/C=C/CO)cc12)c1ccccc1 [Compound 25, (E)-3-[2-(2-Benzoylaminophenyl)vinyl]-(E)-5-(3-hydroxy-1-propen-1-yl)-1H-indazole]
< 0.5 | O=C(Nc1ccccc1/C=C/c1n[nH]c2ccc(C#CCO)cc12)c1ccccc1 [Compound 26, (E)-3-[2-(2-Benezoylaminophenyl)vinyl]-5-(3-hydroxy-1-propyn-1-yl)-1H-indazole]

Compound | IC50 [µM]
(E)-3-[2-(Benzamidopyridin-3-yl)vinyl]-(E)-5-(2-carboxyvinyl)-1H-indazole [Compound 23] | < 0.5

These compounds were tested on PC12 cells (assay: Apoptosis suppressive activity by removal of NGF in NGF-differentiated PC12 cells (MTT)). Details: 3 μmol/L test compound; 24 hours without NGF; cells with NGF not removed = 100%, NGF removed = 0%.
Assay type: cell-based
Protocol: PC12 cells prepared in 6.0×10^4/mL by Roswell Park Memorial Institute's Medium (RPMI) 1640 medium containing 10% of horse serum, 5% of bovine fetal serum and penicillin/streptomycin were disposed in a 24-well multidish (NulgeNunc International; No. 143982) coated with polyethyleneimine in an amount of 0.5 mL for each well. After the cells were adhered to the dish, the medium was removed, an RPMI 1640 medium containing […] of 1% horse serum, penicillin/streptomycin and 50 ng/mL of mouse nerve growth factor (NGF) was added and the cells were incubated in a carbon dioxide gas incubator at 37° C. for 9 to 12 days, causing the cells to differentiate into a nerve cell form. A dilution series of DMSO solution of the test compound was prepared, and diluted with a medium containing 1% horse serum and penicillin/streptomycin and containing no NGF (final DMSO concentration: 0.1%). The medium was removed, washing was conducted twice using a medium containing 0.5 mL of the test compound, 1% horse serum, and penicillin/streptomycin, and containing no NGF, 0.5 mL of the above-medium was added once again to each well and then incubation was conducted in a carbon dioxide gas incubator at 37° C. for 24 hours. The medium was removed, 0.2 mL of a medium containing 1% horse serum, penicillin/streptomycin, NGF and 1 mg/mL 3-(4,5-dimethyl-2-thiazolyl)-2,5-diphenyl-2H-tetrazolium bromide (MTT) containing no test compound, was added to each well and incubation was conducted in a carbon dioxide gas incubator at 37° C. for 4 hours. DMSO (0.6 mL) was added to each well and 0.2 mL thereof was transferred to a 96-well multititer plate (Nulge Nunc International; No. 167008) and absorbances at 590 nm and 630 nm were measured using a microplate reader EL 3401 (Bio-Tek). The absorbance differential was calculated by subtracting the […] for each well. The apoptosis suppressive activity (%) of test compound were calculated by comparing the absorbance differential obtained from cells treated with test compound of known concentration with the value in the cells from which no NGF was removed and the value in the cells from which NGF was removed. Here, the value in the cells from which no NGF was removed was set at 100% while the value in the cells from which NGF was removed was set at 0%.

Compound | Apoptosis Suppressive Activity in 3 μmol/L of Test Compound (%)
CN(C)CCOc1ccc(/C=C/c2n[nH]c3ccccc23)cc1 [Compound 1] | 63
C(=C\c1n[nH]c2ccccc12)/c1cccnc1 [Compound 2, (E)-3-[2-(3-Pyridyl)vinyl]-1H-indazole] | 44
O=C(Nc1ccc2[nH]nc(/C=C/c3cccnc3)c2c1)c1ccccc1 [Compound 4, (E)-5-Benzamido-3-[2-(3-pyridyl)vinyl]-1H-indazole] | 64
COC(=O)/C=C/c1ccc2[nH]nc(/C=C/c3cccnc3)c2c1 [Compound 14, (E)-5-(2-Methoxycarbonylvinyl)-(E)-3-[2-(3-pyridyl)vinyl]-1H-indazole] | 62
